Data as given in US20100203524A1, “POLYMERASES AND METHODS OF USE THEREOF” (Helicos Biosciences Corporation, priority 2008, published 2010).

What was measured:
[1] = tested on: dNTP-F1 / scarred primer terminus; assay: Sequencing-like kinetic assay: extension of scarred primer terminus with dNTP-F1 by Taq or Taq197; format: biochemical; conditions: 37° C., 40 nM enzyme, 10 nM DNA, 100 nM dNTP-F1
Description: Scarred primers were prepared enzymatically; following annealing of natural primers (bearing Rhodamine 110 dye-label, purchased from IDT) to templates, 15 U Klenow fragment (exo−) (New England Biolabs) in its supplied buffer was incubated with 5 μM DNA and 25 μM scarred dNTPs in 100 μL for 20 minutes at room temperature to incorporate scarred nucleotides onto the primer. Upon completion, reaction mixtures were heated at 70° C. for 15 minutes to inactivate Klenow fragment and purified from the scarred dNTPs using a DTR spin column (Edge BioSystems). Scarred primers were observed on an ABI3730 DNA sequencer and conversion to the desired scarred primer was greater than 95%.
Polymerases were added to a mixture containing scarred DNA (prepared in previous section), modified dNTPs, and reaction buffer and incubated at either 37° C. or 50° C. and aliquots removed at variable time points and added directly to a quenching solution containing 100 mM EDTA. Reaction products were characterized on an ABI3730 sequencer using the GeneScan™ LIZ 120® size standard (Applied Biosystems) as a reference. The ratio of peak heights, obtained using ABI Peak Scanner (v1.0), was used to calculate percent primer conversion as a function of time and the data was fit to a first order exponential (Prism 4 by GraphPad).
The mutations found in Sf168, Sf197, and Sf267 were cloned into full length Taq, and extension of a scarred primer terminus was characterized by measuring the rate of incorporation of each dNTP-F1 by Taq or a selected mutant. Taq197 (corresponding to the mutations from Sf197) was the most optimized of the three polymerase mutants, incorporating each dNTP-F1 48- to 377-fold more efficiently than wild type Taq, with no apparent bias toward the identity of the dNTP-F1 or the sequence of the primer, as shown in Table 7 below. Buffer conditions were as follows: 20 mM Tris pH 8.8, 10 mM NaCl, 10 mM KCl, 10 mM ammonium sulfate, 0.1% Triton X-100, 10 mM MgCl2, 37° C., 40 nM enzyme, 10 nM DNA, 100 nM dNTP-F1. N1 nucleotides are scarred (see FIG. 1 panel B).

[2] = tested on: incorrect dNTP-F1s opposite dA in the template; assay: Fidelity: misincorporation of the three incorrect dNTP-F1s opposite dA in the template; format: biochemical; conditions: even after 90 minutes
Description: To examine the fidelity of Taq197, the misincorporation of the three incorrect dNTP-F1s opposite dA in the template was characterized. […] Thus, based on the detection limit of the assay, it was possible to set an upper limit of 5.6×10^−4 min^−1 for the rate of mispair formation, making correct incorporation of modified nucleotides more than 5,000-fold more efficient than mispair formation.

Substance: Taq: wild type full length T. aquaticus DNA polymerase I (Taq)
- rate of incorporation of dNTP-F1 ([1]; dNTP-F1 C, N1N1N1/N2N2N2 AAA/UUU): 0.002 ± 0.0002 min⁻¹
- rate of incorporation of dNTP-F1 ([1]; dNTP-F1 G, N1N1N1/N2N2N2 UIJU/AAA): 0.14 ± 0.05 min⁻¹
- rate of incorporation of dNTP-F1 ([1]; dNTP-F1 N = A, N1N1N1/N2N2N2 UUU/AAA): 0.011 ± 0.002 min⁻¹
- rate of incorporation of dNTP-F1 ([1]; dNTP-F1 U, N1N1N1/N2N2N2 CCC/GGG): 0.05 ± 0.02 min⁻¹
- synthesis of mispairs [2]: does not measurably synthesize any of the mispairs
